# Values of other authors, collected in patent US6831088B2, “3-heterocyclypropanohydroxamic acid PCP inhibitors” (Pfizer Inc., priority 2001, dated 2004).
# Like-named read-outs stand apart in the source and are kept apart here.
# System: PCP
smiles,measurement,setting,value
[Cl-].[Na+] [NaCl],activity of PCP relative to that observed with the standard assay concentration of 0.15M,0.2M NaCl,66%
same,activity of PCP relative to that observed with the standard assay concentration of 0.15M,0.3M NaCl,38%
same,activity of PCP relative to that observed with the standard assay concentration of 0.15M,0.5M NaCl,25%
